Data published in ChEMBL document CHEMBL2074439, “Localization and genomic organization of a new hepatocellular organic anion transporting polypeptide” (J Biol Chem, 2000).

How the values were obtained:
[1] = biological target: T1, Solute carrier organic anion transporter family member 1B3 (Homo sapiens, UniProt Q9NPD5); assay: (§1) TP_TRANSPORTER: uptake in OATP8-expressing HEK293 cells; format: functional, cell-based; settings: hek293
T1 sequence (Q9NPD5 whole entry): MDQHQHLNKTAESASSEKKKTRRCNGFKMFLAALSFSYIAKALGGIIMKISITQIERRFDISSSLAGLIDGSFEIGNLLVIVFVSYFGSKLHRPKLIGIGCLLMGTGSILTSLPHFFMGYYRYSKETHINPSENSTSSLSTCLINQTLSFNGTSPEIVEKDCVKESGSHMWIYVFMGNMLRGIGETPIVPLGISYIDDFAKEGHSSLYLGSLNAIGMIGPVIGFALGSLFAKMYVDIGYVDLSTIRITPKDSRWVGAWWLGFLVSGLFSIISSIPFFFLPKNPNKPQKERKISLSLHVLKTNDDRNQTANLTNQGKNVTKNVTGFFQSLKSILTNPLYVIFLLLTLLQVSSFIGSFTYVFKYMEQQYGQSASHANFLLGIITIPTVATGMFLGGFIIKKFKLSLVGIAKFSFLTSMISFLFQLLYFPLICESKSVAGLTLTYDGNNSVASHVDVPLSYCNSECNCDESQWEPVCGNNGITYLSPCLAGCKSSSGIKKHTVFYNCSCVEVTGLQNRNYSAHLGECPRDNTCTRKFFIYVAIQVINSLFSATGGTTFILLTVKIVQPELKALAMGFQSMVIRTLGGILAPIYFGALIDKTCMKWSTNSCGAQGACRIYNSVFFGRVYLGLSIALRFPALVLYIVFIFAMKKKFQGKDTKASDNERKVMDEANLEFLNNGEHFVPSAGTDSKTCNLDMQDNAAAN

OATP8 (OATP1B3, SLCO1B3) = biological target: T2, OATP8 (OATP1B3, SLCO1B3) (Homo sapiens, UniProt Q9NPD5); assay: as §1; format: functional, cell-based; settings: HEK293 cells that express OATP8 (OATP1B3)
T2 sequence (Q9NPD5 whole entry): T1 sequence (Q9NPD5 whole entry)

C[C@]12CC[C@@H]3c4ccc(O)cc4CC[C@H]3[C@@H]1CC[C@@H]2O[C@@H]1O[C@H](C(=O)O)[C@@H](O)[C@H](O)[C@H]1O [ESTRADIOL 17B GLUCURONIDE]
Km [1]: 5.4 µM | Km (OATP8 (OATP1B3, SLCO1B3)): 5.4 µM

CCCCC/C=C\C\C=C/C=C/C=C/[C@@H](SC[C@@H](NC(=O)CC[C@H](N)C(=O)O)C(=O)NCC(=O)O)[C@@H](O)CCCC(=O)O [LEUKOTRIEN C4]
Activity [1]: substrate [+]

O=C1OC(c2ccc(O)c(S(=O)(=O)O)c2)(c2ccc(O)c(S(=O)(=O)O)c2)c2c(Br)c(Br)c(Br)c(Br)c21 [SULFOBROMOPHTHALEIN SODIUM]
Km [1]: 3.3 µM | Km (OATP8 (OATP1B3, SLCO1B3)): 3.3 µM
